Data as given in patent publication US9513294B2, “Megastokes amino-triazolyl-BODIPY compounds and applications to live neuron staining and human serum albumin FA1 drug site probing” (National University of Singapore, priority 2012, dated 2016).
One block for each compound: values may come before it.

How the values were obtained:
[1] = Absorbance and fluorescence emission spectra (SpectraMax M2); type: physicochemical; conditions: for λmax Absorp. (nm) / λmax Emission (nm): MKCA compound library; for λmax Absorp. (nm) / λmax Abs. (nm): absorbance maximum; for λmax Emission (nm) / λmax Em. (nm): fluorescence emission maximum; for λmax Abs. (nm) / λmax Em. (nm): MKAC compound library
Method: BDC-8 (Blue): absorbance λmax=473 nm, emission λmax=585 nm; MK101-8 (Green): absorbance λmax=474 nm, emission λmax=563 nm; MKHA374-48 (Yellow): absorbance λmax=468 nm, λem=557 nm. The corresponding spectra of a reported BODIPY (BD-27; Red) are also included for comparison: absorbance λmax=551 nm, emission λmax=568 nm. The structures of BDC-8, MK101-8, MKHA374-48 and BD-27 are also depicted.
(§1) ^1H-NMR, ^19F-NMR and ^13C-NMR spectra were recorded on Bruker ACF300 (300 MHz), DPX300 (300 MHz) and AMX500 (500 MHz) spectrometers. High resolution mass spectra (ESI) were obtained on a Finnigan/MAT 95XL-T spectrometer. Spectroscopic and quantum yield data were measured on a SpectraMax M2 spectrophotometer (Molecular Devices). Data analysis was performed using GraphPrism 5.0. Analytical characterization was performed on a HPLC-MS (Agilent-1200 series) with a DAD detector and a single quadrupole mass spectrometer (6130 series) with an ESI probe. Analytical HPLC method: eluents, A: H2O (0.1% HCOOH), B: CH3CN (0.1% HCOOH), gradient 5% B to 95% B (10 min). Reverse-phase Phenomenex C18 Luna column (4.6×50 mm^2, 3.5 […]), flow rate: 1 mL/min.

[2] = Quantum yield measurements versus Acridine Yellow in EtOH; type: physicochemical; conditions: for φ (quantum yield): excitation 460 nm; for φ (%): quantum yield
Method: as §1
Quantum yields were calculated by measuring the integrated emission area of the fluorescent spectra and comparing to the area measured for Acridine Yellow in EtOH when excited at 460 nm (Φfluorescence^AcridineYellow=0.47). Quantum yields for the amino-triazolyl-BODIPYs were calculated using the equation below, where F represents the area of fluorescent emission, η is the refractive index of the solvent, and Abs is absorbance at the excitation wavelength selected for standards and samples. Emission was integrated between 510 and 700 nm.

- λmax Absorp. ([1]; BDC library, Table 2): 473 nm
- λmax Emission ([1]; BDC library, Table 2): 585 nm
- φ (quantum yield) ([2]; BDC library, Table 2): 0.12%
SMILES: Nc1ccc(C2=C3C=CC(N4CCCCC4)=[N+]3[B-](F)(F)n3c2ccc3-n2cc(-c3ccc(F)cc3F)nn2)cc1 [BDC-26]

- λmax Absorp. ([1]; BDCCA library, Table 4): 465 nm
- λmax Emission ([1]; BDCCA library, Table 4): 565 nm
- φ (quantum yield) ([2]; BDCCA library, Table 4): 1.7%
SMILES: O=C(CCl)Nc1ccc(C2=C3C=CC(N4CCCCC4)=[N+]3[B-](F)(F)n3c2ccc3-n2cc(C3=CCCCC3)nn2)cc1 [BDCCA-37]

- λmax Absorp. ([1]; BDC library, Table 2): 475 nm
- λmax Emission ([1]; BDC library, Table 2): 616 nm
- φ (quantum yield) ([2]; BDC library, Table 2): 0.03%
SMILES: CN(C)c1ccc(-c2cn(-c3ccc4n3[B-](F)(F)[N+]3=C(N5CCCCC5)C=CC3=C4c3ccc(N)cc3)nn2)cc1 [BDC-13]

- λmax Absorp. ([1]; MK library, Table 5): 473 nm
- λmax Emission ([1]; MK library, Table 5): 563 nm
- φ (quantum yield) ([2]; MK library, Table 5): 1.91%
SMILES: CCCc1cn(-c2ccc3n2[B-](F)(F)[N+]2=C(NCc4ccccc4OCC)C=CC2=C3c2ccc(N)cc2)nn1 [MK103-48]

- λmax Absorp. (nm) [1]: 463 nm
- λmax Emission (nm) [1]: 564 nm
- φ (%) ([2]; MKCA compound library): 2.66%
SMILES: O=C(CCl)Nc1ccc(C2=C3C=CC(N4CCCC4)=[N+]3[B-](F)(F)n3c2ccc3-n2cc(CC3CCCCC3)nn2)cc1 [MKCA215-8]

- λmax Abs. (nm) [1]: 466 nm
- λmax Em. (nm) [1]: 577 nm
- φ (%) ([2]; MKAC compound library): 3.65%
SMILES: CC(=O)Nc1ccc(C2=C3C=CC(N(C)Cc4ccccc4)=[N+]3[B-](F)(F)n3c2ccc3-n2cc(CC3CCCCC3)nn2)cc1 [MKAC195-8]

- λmax Absorp. ([1]; BDCCA library, Table 4): 466 nm
- λmax Emission ([1]; BDCCA library, Table 4): 582 nm
- φ (quantum yield) ([2]; BDCCA library, Table 4): 0.7%
SMILES: CCCCCCCCc1cn(-c2ccc3n2[B-](F)(F)[N+]2=C(N4CCCCC4)C=CC2=C3c2ccc(NC(=O)CCl)cc2)nn1 [BDCCA-44]

- λmax Absorp. (nm) [1]: 468 nm
- λmax Emission (nm) [1]: 581 nm
- φ (%) ([2]; MKCA compound library): 4.60%
SMILES: CC1CN(C2=[N+]3C(=C(c4ccc(NC(=O)CCl)cc4)c4ccc(-n5cc(C6CCCC6)nn5)n4[B-]3(F)F)C=C2)CC(C)O1 (stereo not drawn) [MKCA20-5]

- λmax Absorp. ([1]; BDCAC library, Table 3): 465 nm
- λmax Emission ([1]; BDCAC library, Table 3): 582 nm
- φ (quantum yield) ([2]; BDCAC library, Table 3): 1.4%
SMILES: CC(=O)Nc1ccc(C2=C3C=CC(N4CCCCC4)=[N+]3[B-](F)(F)n3c2ccc3-n2cc(-c3ccc(C(C)(C)C)cc3)nn2)cc1 [BDCAC-11]

- λmax Absorp. ([1]; MK library, Table 5): 476 nm
- λmax Emission ([1]; MK library, Table 5): 591 nm
- φ (quantum yield) ([2]; MK library, Table 5): 0.28%
SMILES: CCCCCC(O)c1cn(-c2ccc3n2[B-](F)(F)[N+]2=C(N(C)Cc4ccccc4)C=CC2=C3c2ccc(N)cc2)nn1 (stereo not drawn) [MK195-69]

- λmax Absorp. ([1]; BDC library, Table 2): 472 nm
- λmax Emission ([1]; BDC library, Table 2): 579 nm
- φ (quantum yield) ([2]; BDC library, Table 2): 0.28%
SMILES: COc1ccc2cc(-c3cn(-c4ccc5n4[B-](F)(F)[N+]4=C(N6CCCCC6)C=CC4=C5c4ccc(N)cc4)nn3)ccc2c1 [BDC-22]

- λmax Abs. (nm) [1]: 467 nm
- λmax Em. (nm) [1]: 562 nm
- φ (%) ([2]; MKAC compound library): 13.79%
SMILES: COc1ccc(OC)c(CNC2=[N+]3C(=C(c4ccc(NC(C)=O)cc4)c4ccc(-n5cc(CC(C)C)nn5)n4[B-]3(F)F)C=C2)c1 [MKAC181-43]

- λmax Absorp. (nm) [1]: 468 nm
- λmax Emission (nm) [1]: 563 nm
- φ (%) ([2]; MKCA compound library): 37.83%
SMILES: CC(C)Cc1cn(-c2ccc3n2[B-](F)(F)[N+]2=C(NCc4cc(F)cc(F)c4)C=CC2=C3c2ccc(NC(=O)CCl)cc2)nn1 [MKCA412-43]

- λmax Abs. (nm) [1]: 466 nm
- λmax Em. (nm) [1]: 580 nm
- φ (%) ([2]; MKAC compound library): 3.48%
SMILES: CC(=O)Nc1ccc(C2=C3C=CC(N(C)Cc4ccccc4)=[N+]3[B-](F)(F)n3c2ccc3-n2cc(CC(C)C)nn2)cc1 [MKAC195-43]

- λmax Abs. (nm) [1]: 467 nm
- λmax Em. (nm) [1]: 581 nm
- φ (%) ([2]; MKAC compound library): 2.93%
SMILES: CCCc1cn(-c2ccc3n2[B-](F)(F)[N+]2=C(N4CC(C)OC(C)C4)C=CC2=C3c2ccc(NC(C)=O)cc2)nn1 (stereo not drawn) [MKAC20-48]

- λmax Absorp. (nm) [1]: 466 nm
- λmax Emission (nm) [1]: 563 nm
- φ (%) ([2]; MKCA compound library): 31.53%
SMILES: Cc1ccccc1CNC1=[N+]2C(=C(c3ccc(NC(=O)CCl)cc3)c3ccc(-n4cc(C5CCCC5)nn4)n3[B-]2(F)F)C=C1 [MKCA101-5]

- λmax Absorp. (nm) [1]: 465 nm
- λmax Emission (nm) [1]: 562 nm
- φ (%) ([2]; MKCA compound library): 30.05%
SMILES: CCCCCC(O)c1cn(-c2ccc3n2[B-](F)(F)[N+]2=C(NCc4cc(F)cc(F)c4)C=CC2=C3c2ccc(NC(=O)CCl)cc2)nn1 (stereo not drawn) [MKCA412-69]

- λmax Absorp. ([1]; BDC library, Table 2): 476 nm
- λmax Emission ([1]; BDC library, Table 2): 589 nm
- φ (quantum yield) ([2]; BDC library, Table 2): 0.10%
SMILES: CC(C)Cc1cn(-c2ccc3n2[B-](F)(F)[N+]2=C(N4CCCCC4)C=CC2=C3c2ccc(N)cc2)nn1 [BDC-43]
